Target: T1, Mycothiol S-conjugate amidase (Mycobacterium tuberculosis, UniProt P9WJN1)
T1 sequence (P9WJN1 whole entry): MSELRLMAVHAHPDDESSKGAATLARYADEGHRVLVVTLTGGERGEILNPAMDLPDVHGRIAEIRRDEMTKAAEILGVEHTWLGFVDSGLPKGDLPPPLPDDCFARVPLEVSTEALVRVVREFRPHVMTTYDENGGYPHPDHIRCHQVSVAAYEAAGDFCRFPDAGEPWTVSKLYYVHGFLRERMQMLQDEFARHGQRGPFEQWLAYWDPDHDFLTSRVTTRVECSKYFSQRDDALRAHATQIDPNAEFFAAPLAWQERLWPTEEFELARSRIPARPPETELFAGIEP
Test: Inhibition of Mycothiol -S-conjugate amidase (MCA) from mycobacterium tuberculosis

SMILES	IC50
COC1=C(Br)C[C@]2(OC=C1Br)ON=C(C(=O)NCCOc1c(Br)cc(CCN)cc1Br)[C@@H]2O	20 µM
COC1=C(Br)C[C@]2(OC=C1Br)ON=C(C(=O)NCCOc1c(Br)cc(C(O)CN)cc1Br)[C@@H]2O (stereo partly specified)	26 µM
O=C(NCCSSc1ccc(F)cc1)/C(Cc1cccc(Br)c1)=N\O	90 µM
CC(=O)N[C@H](CS)C(=O)NC1C(OC2C(O)C(O)C(O)C(O)C2O)OC(CO)C(O)C1O (stereo partly specified)	~1 µM
Nc1ccc(SSCCNC(=O)/C(Cc2ccc(O)c(Cl)c2)=N\O)cc1	35 µM
Nc1ccc(SSCCNC(=O)/C(Cc2cccc(Br)c2)=N\O)cc1	185 µM
O=C(NCCSSc1ccc(F)cc1)/C(Cc1cc(F)cc(F)c1)=N\O	2720 µM
N=C(N)CCCCNC(=O)/C(Cc1cc(Br)c(OCCCN)c(Br)c1)=N/O	2.8 µM
O=C(NCCSSc1ccc(F)cc1)/C(Cc1ccc(O)c(Cl)c1)=N\O	37 µM
Nc1ccc(SSCCNC(=O)/C(Cc2cc(F)cc(F)c2)=N\O)cc1	450 µM
COC1=C(Br)[C@@H](O)[C@]2(C=C1Br)CC(C(=O)NCCc1[nH]c(N)nc1-c1cc(O)c3ncc(O)c(O)c3c1O)=NO2	2 µM
COC1=C(Br)C[C@]2(C=C1Br)CC(C(=O)NCCc1c[nH]c(N)n1)=NO2	100 µM
NCCCOc1c(Br)cc(C/C(=N\O)C(=O)NCCc2c[nH]c(N)n2)cc1Br	36 µM
Cc1cccc(C)c1SSCCNC(=O)/C(Cc1cccc(Br)c1)=N/O	65 µM
CC(=O)N[C@H](CSCc1c(C)c(=O)n2c(=O)c(C)c(C)n12)C(=O)NC1C(OC2C(O)C(O)C(O)C(O)C2O)OC(CO)C(O)C1O (stereo partly specified) [MYCOTHIOL BIMANE]	~1 µM
O=C(NCCSSCCNC(=O)/C(Cc1ccc(O)c(Br)c1)=N/O)/C(Cc1ccc(O)c(Br)c1)=N/O [PSAMMAPLIN A]	2.8 µM

— ChEMBL document CHEMBL1135313, “Bromotyrosine-derived natural and synthetic products as inhibitors of mycothiol-S-conjugate amidase” (Bioorg Med Chem Lett, 2002)
